Key:
[1] = biological target: T1, HCMV polymerase (Human cytomegalovirus, UniProt P08546); experiment: HCMV polymerase scintillation proximity assay (modified version); assay type: biochemical; conditions: at a concentration of 20 μM; read-out: percent inhibition of the viral polymerase, HCMV
T1 construct: made in house; host or cells: recombinant baculovirus-infected SF-9 cells
Protocol: The HCMV polymerase assay is performed using a scintillation proximity assay (SPA) as described in several references, such as N. D. Cook, et al., Pharmaceutical Manufacturing International, pages 49-53 (1992); K. Takeuchi, Laboratory Practice, September issue (1992); U.S. Pat. No. 4,568,649 (1986); which are incorporated by reference herein. Reactions are performed in 96-well plates. The assay is conducted in 100 μl volume with 5.4 mM HEPES (pH 7.5), 11.7 mM KCl, 4.5 mM MgCl2, 0.36 mg/ml BSA, and 90 nM ^3H-dTTP. Assays are run with and without CHAPS, (3-[(3-cholamidopropyl)-dimethylammonio]-1-propane-sulfonate) at a final concentration of 2 mM. HCMV polymerase is diluted in enzyme dilution buffer containing 50% glycerol, 250 mM NaCl, 10 mM HEPES (pH 7.5), 100 μg/ml BSA, and 0.01% sodium azide. The HCMV polymerase, which is expressed in recombinant baculovirus-infected SF-9 cells and purified according to literature procedures, is added at 10% (or 10 μl) of the final reaction volume, i.e., 100 μl. Compounds are diluted in 50% DMSO and 10 μl are added to each well. Control wells contain an equivalent concentration of DMSO. Unless noted otherwise, reactions are initiated via the addition of 6 nM biotinylated poly(dA)-oligo(dT) template/primer to reaction mixtures containing the enzyme, substrate, and compounds of interest. Plates are incubated in a 25° C. or 37° C. H2O bath and terminated via the addition of 40 μl/reaction of 0.5 M EDTA (pH 8) per well. Reactions are terminated within the time-frame during which substrate incorporation is linear and varied depending upon the enzyme and conditions used, i.e., 30 min. for HCMV polymerase. Ten μl of streptavidin-SPA beads (20 mg/ml in PBS/10% glycerol) are added following termination of the reaction. Plates are incubated 10 min. at 37° C., then equilibrated to room temperature, and counted on a Packard Topcount. Linear regressions are performed and IC50's are calculated using computer software.
A modified version of the above HCMV polymerase assay is performed as described above, but with the following changes: Compounds are diluted in 100% DMSO until final dilution into assay buffer. In the previous assay, compounds are diluted in 50% DMSO. 4.5 mM dithiotherotol (DTT) is added to the polymerase buffer. […] All results are listed as the percent inhibition of the viral polymerase at a concentration of 20 μM. In Table 1, the term “nd” refers to activity data not determined.

[2] = biological target: VZV polymerase (Varicella-zoster virus, UniProt P09252); experiment: VZV polymerase assay (Table 1, viral polymerase inhibition); assay type: biochemical; conditions: at a concentration of 20 μM; read-out: percent inhibition of the viral polymerase, VZV
Protocol: The HCMV polymerase assay is performed using a scintillation proximity assay (SPA) as described in several references, such as N. D. Cook, et al., Pharmaceutical Manufacturing International, pages 49-53 (1992); K. Takeuchi, Laboratory Practice, September issue (1992); U.S. Pat. No. 4,568,649 (1986); which are incorporated by reference herein. Reactions are performed in 96-well plates. The assay is conducted in 100 μl volume with 5.4 mM HEPES (pH 7.5), 11.7 mM KCl, 4.5 mM MgCl2, 0.36 mg/ml BSA, and 90 nM ^3H-dTTP. Assays are run with and without CHAPS, (3-[(3-cholamidopropyl)-dimethylammonio]-1-propane-sulfonate) at a final concentration of 2 mM. HCMV polymerase is diluted in enzyme dilution buffer containing 50% glycerol, 250 mM NaCl, 10 mM HEPES (pH 7.5), 100 μg/ml BSA, and 0.01% sodium azide. […] Plates are incubated 10 min. at 37° C., then equilibrated to room temperature, and counted on a Packard Topcount. Linear regressions are performed and IC50's are calculated using computer software.
A modified version of the above HCMV polymerase assay is performed as described above, but with the following changes: Compounds are diluted in 100% DMSO until final dilution into assay buffer. […] In Table 1, the term “nd” refers to activity data not determined.

[3] = biological target: HSV polymerase (Human herpesvirus 1, UniProt P04293); experiment: HSV polymerase assay (Table 1, viral polymerase inhibition); assay type: biochemical; conditions: at a concentration of 20 μM; read-out: percent inhibition of the viral polymerase, HSV
Sequence of HSV polymerase (P04293 whole entry): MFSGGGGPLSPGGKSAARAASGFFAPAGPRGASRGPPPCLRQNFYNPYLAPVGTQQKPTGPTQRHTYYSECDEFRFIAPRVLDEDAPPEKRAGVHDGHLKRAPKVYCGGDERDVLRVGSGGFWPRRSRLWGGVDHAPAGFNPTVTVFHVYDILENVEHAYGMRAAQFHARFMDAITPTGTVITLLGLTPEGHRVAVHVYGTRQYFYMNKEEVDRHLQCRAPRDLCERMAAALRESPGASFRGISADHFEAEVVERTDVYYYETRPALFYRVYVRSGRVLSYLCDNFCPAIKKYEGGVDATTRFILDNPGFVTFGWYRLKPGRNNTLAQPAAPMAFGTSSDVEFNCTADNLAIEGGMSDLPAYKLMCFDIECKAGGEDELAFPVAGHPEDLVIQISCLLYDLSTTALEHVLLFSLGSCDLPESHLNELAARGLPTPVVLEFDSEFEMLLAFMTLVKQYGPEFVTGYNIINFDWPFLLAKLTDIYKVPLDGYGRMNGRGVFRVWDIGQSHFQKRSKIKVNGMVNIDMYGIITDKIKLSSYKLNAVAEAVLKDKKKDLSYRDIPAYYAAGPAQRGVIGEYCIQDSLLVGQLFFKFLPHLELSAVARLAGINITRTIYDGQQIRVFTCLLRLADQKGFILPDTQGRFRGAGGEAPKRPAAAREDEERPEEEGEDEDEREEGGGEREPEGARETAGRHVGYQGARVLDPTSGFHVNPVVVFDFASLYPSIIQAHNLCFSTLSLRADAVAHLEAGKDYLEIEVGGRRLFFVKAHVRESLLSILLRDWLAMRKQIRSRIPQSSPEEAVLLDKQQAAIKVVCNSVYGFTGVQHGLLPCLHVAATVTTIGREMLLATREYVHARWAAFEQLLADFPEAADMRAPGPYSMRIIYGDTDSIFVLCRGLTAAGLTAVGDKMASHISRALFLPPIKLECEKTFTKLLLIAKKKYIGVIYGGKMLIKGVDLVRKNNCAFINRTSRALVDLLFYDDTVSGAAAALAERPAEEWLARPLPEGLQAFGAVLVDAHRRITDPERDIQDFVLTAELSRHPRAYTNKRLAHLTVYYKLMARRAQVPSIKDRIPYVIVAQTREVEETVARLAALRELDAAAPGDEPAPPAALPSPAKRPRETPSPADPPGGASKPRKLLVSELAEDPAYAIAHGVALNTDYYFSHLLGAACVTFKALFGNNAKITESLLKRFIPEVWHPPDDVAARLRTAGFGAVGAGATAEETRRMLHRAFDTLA

T1 sequence (P08546 whole entry): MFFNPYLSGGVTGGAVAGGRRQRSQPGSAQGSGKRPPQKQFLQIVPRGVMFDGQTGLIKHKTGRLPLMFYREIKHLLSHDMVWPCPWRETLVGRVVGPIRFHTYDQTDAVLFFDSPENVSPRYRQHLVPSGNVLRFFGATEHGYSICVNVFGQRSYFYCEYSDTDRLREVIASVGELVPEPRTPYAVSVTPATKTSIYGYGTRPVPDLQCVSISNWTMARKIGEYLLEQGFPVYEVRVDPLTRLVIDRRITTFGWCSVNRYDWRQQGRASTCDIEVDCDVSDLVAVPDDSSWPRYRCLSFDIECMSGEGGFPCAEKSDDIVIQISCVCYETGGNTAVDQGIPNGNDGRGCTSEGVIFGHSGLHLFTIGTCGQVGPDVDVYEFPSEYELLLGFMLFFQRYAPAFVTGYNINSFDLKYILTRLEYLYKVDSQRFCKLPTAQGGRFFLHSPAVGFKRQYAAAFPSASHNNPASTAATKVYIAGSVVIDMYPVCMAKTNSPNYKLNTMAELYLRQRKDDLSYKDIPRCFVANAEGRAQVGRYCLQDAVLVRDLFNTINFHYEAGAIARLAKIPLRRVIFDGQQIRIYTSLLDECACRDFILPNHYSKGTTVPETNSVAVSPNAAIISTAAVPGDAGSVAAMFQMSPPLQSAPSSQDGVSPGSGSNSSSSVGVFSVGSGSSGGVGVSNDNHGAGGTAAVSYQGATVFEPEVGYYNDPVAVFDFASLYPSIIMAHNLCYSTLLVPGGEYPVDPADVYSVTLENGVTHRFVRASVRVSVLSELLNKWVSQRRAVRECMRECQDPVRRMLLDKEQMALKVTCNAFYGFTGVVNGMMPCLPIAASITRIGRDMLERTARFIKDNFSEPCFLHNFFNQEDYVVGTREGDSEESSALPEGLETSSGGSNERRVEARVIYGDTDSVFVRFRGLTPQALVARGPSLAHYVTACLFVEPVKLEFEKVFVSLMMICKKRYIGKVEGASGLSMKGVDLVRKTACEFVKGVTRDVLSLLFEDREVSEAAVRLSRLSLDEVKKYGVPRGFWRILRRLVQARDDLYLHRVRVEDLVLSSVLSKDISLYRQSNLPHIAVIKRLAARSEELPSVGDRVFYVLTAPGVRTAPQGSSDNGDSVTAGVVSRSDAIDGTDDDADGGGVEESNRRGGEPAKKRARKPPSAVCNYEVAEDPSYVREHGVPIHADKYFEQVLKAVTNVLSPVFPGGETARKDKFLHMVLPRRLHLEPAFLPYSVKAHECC
Sequence of VZV polymerase (P09252 whole entry): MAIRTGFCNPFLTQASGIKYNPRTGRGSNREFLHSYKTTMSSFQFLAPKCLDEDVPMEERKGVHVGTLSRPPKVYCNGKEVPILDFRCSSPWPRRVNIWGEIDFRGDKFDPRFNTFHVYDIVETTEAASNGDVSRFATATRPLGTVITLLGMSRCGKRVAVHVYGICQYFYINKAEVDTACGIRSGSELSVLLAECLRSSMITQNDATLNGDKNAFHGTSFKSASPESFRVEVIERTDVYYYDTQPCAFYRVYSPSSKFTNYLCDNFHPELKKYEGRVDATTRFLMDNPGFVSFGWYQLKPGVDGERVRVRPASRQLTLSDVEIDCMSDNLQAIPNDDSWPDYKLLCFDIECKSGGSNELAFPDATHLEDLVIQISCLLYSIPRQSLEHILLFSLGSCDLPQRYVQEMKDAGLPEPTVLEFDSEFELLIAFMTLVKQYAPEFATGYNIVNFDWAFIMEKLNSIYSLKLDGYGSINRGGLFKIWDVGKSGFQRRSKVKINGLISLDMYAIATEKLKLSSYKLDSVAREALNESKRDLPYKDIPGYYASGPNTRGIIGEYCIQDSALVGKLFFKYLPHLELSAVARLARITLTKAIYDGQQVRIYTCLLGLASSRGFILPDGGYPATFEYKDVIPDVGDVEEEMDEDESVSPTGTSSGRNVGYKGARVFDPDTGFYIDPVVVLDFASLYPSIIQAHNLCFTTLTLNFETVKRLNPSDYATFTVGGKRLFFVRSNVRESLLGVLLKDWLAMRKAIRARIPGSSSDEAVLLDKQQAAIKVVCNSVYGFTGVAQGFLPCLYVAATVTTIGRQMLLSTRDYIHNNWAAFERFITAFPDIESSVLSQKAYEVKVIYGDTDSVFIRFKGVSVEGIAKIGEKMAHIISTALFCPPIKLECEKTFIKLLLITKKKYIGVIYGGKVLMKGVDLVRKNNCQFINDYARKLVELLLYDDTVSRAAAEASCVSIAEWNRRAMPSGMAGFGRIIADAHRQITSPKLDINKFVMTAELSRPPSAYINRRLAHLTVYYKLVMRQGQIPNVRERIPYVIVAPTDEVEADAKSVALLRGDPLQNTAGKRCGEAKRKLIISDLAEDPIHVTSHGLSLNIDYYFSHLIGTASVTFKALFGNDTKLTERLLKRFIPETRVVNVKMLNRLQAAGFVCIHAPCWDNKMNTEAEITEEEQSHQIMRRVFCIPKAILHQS

| inhibition at 20 µM [1] [%] | melting point | inhibition at 20 µM [2] [%] | inhibition at 20 µM [3] [%] | SMILES |
| --- | --- | --- | --- | --- |
| 51 | 296 to 298 °C |  |  | O=C(NCc1ccc(Cl)cc1)c1nnc2ccc(CO)cc2c1O [Example 4, N-(4-chlorobenzyl)-4-hydroxy-6-(hydroxymethyl)-3-cinnolinecarboxamide] |
| > 100 | 307 to 308 °C |  |  | O=C(NCc1ccc(Cl)cc1)c1nnc2ccc(I)cc2c1O [Comp. 2, N-(4-chlorobenzyl)-4-hydroxy-6-iodo-3-cinnolinecarboxamide] |
|  | 277 to 280 °C (dec.) |  |  | O=C(NCc1ccc(Cl)cc1)c1nnc2ccc(CN3CCOCC3)cc2c1O [Example 5, N-(4-chlorobenzyl)-4-hydroxy-6-(morpholinylmethyl)-3-cinnolinecarboxylate] |
| 50 | 308 to 310 °C |  |  | COC(=O)c1ccc2nnc(C(=O)NCc3ccc(Cl)cc3)c(O)c2c1 [Example 3, Methyl 3-{[(4-chlorobenzyl)amino]carbonyl]-4-hydroxy-6-cinnolinecarboxylate] |
| 90 | 269 to 271 °C | 10.1 | 20.8 | O=C(NCc1ccc(Cl)cc1)c1n[nH]c2ccccc2c1=O [Comp. 1, N-(4-chlorobenzyl)-4-oxo-1,4-dihydro-3-cinnolinecarboxamide] |
